Where two headings read alike, the source gives them in different places.
Columns and labels:
J774 macrophages = assay: Resazurin viability assay for J774 macrophages; assay type: cell-based, murine; settings: Mus musculus, J774, 48 h, read-out: J774 IC50
Description: (§1) The influence of AcEP and their analogs (Ac) on the viability of cells was tested in Leishmania tarentolae promastigotes (LtP) and J774 macrophages (Table 2). Based on the changes of viability of the respective cell lines at different compound concentrations, IC50 values were calculated. In Table 2, the IC50 values in both cell lines were compared for the individual compounds. From the ratio of IC50 values in J774 macrophages to IC50 values in LtP, an in vitro selectivity was calculated.
The murine macrophage cell line J774A.1 (ATCC, TIB-67™, Wesel, Germany) was cultivated up to passage 30 in DMEM (high glucose, 3.7 g/L NaHCO3, pH 7.4) with 25,000 IU/L penicillin, 25 mg/L streptomycin, and 10% FCS (heat-inactivated) in 50 mL TubeSpin bioreactors. J774 cells were incubated at 37 °C and 5% CO2 on a roller culture apparatus (5 rpm) in a Heraeus Cytoperm 8080 incubator (Thermo Electron Corp., Vienna, Austria). To determine the cell count, the cell suspension was re-suspended and diluted 1:2 with phosphate-buffered saline (PBS): 137 mM NaCl, 1.4 mM KH2PO4, 4.3 mM Na2HPO4, and 2.7 mM KCl, pH 7.4. After fixation of the cells by mixing the cell suspension 1:1 with a formaldehyde solution (2%, v/v), aliquots of the resulting suspension were transferred into a standard Neubauer chamber (VWR, Austria) and counted manually using a light microscope (Motic BA310, Vienna, Austria) at a magnification of 40 times. J774 cells were passaged twice a week in a ratio of 1:10.
DMEM containing 25,000 U/L penicillin, 25 mg/L streptomycin, 10% FCS, and 1 × 10^5 J774/mL was prepared. This mixture (200 µL) was distributed in cell culture-treated 96-well plates, except the control wells which contained only DMEM. The cells were incubated for 24 h at 37 °C and 5% CO2 to allow attachment. Afterwards the medium and non-adherent cells were removed by washing with PBS, and then, 200 µL DMEM was added to attached cells. Compounds dissolved in DMSO were added in starting concentrations of 25 µM (Pen) or 200 µM (AcEP/Ac), and then, serial dilutions were carried out resulting in the same concentration steps as listed for LtP. For each compound concentration triplicates on each plate were performed. […], 50 µL of resazurin solution (final concentration 20 µM) was added, and after 4 h of incubation, the fluorescence was measured at 560 nm excitation and 590 nm emission using a plate reader (Perkin Elmer EnSpire, Rodgau, Germany). All tests were repeated at least on four different weeks of cultivation.
(§2) Calculations were carried out using Microsoft Excel 2016 (Microsoft). The graphs were created using Origin 6.1 (OriginLab Corporation, Northampton, MA, USA). For all groups of experimental data, mean and standard deviation (SD) were calculated. Statistically significant differences between groups of sample data were identified by unpaired two-tailed Student’s t-test. Differences on the level of p < 0.05 were considered significant. The number of replicates is indicated at the respective figures/tables. The half-maximal inhibitory concentrations (IC50) were determined from non-linear concentration-response curves using a four-parameter logistic model and expressed as the mean ± SD.

[1] = tested on: Leishmania tarentolae promastigotes (LtP); assay: Resazurin viability assay for LtP; assay type: cell-based; settings: for IC50: Leishmania tarentolae, read-out: LtP IC50; for Selectivity IC50,J774/IC50,LtP: ratio of IC50 in J774 macrophages to IC50 in LtP; for IC50,non-EP/IC50,EP: ratio of IC50 of non-EP in LtP versus IC50 of respective EP
Description: as §1
LtP (strain P10 from Jena Bioscience, Jena, Germany) were cultivated according to manufacturer instructions up to passage 50 in brain heart infusion medium (37 g/L, pH 7.4) and supplemented with 5 mg/L hemin and 25,000 IU/L penicillin and 25 mg/L streptomycin in 50 mL TubeSpin bioreactors (TPP, Trasadingen. Switzerland). LtP were grown at 27 °C in an incubator (Ehret, Emmendingen, Germany) and agitated at a frequency of 0.05 s^−1. […] For experiments, LtP were used one day after passage. The cell number was calculated by measuring the optical density (OD) of the culture at 600 nm with a U-1100 photometer (Hitachi Ltd., Tokyo, Japan) and applying the formula × 10^6 cells/mL = OD600nm × 0.969 × 124 × dilution factor [53].
Assay medium of YEM (20.7 g/L yeast extract powder, 1.2 g/L K2HPO4, 0.2 g/L KH2PO4, 2.9 g/L glucose, pH 7.4) and PBS (1:1, v/v), 25,000 U/L penicillin, 25 mg/L streptomycin, and 7.7 µM hemin was prepared. Aliquots of 200 µL of this medium and 2 × 10^6 LtP/mL (where required) were distributed in non-treated cell culture 96-well plates. Compounds (dissolved in DMSO) were added with starting concentrations of 25 µM (Pen) or 200 µM (AcEP/Ac), and then, serial dilutions were carried out resulting in a set of concentrations (25, 5, 1, 0.2, 0.04, and 0.008 µM) or (200, 40, 8, 1.6, 0.32, and 0.064 µM). For each compound concentration, at least triplicates on each plate were performed. After incubation of the plates at 27 °C for 48 h, 50 µL of resazurin solution (final concentration in wells 20 µM) was added to each well and after 4 h of incubation, the fluorescence was measured at 560 nm excitation and 590 nm emission using a plate reader (Perkin Elmer EnSpire, Rodgau, Germany) (adapted from). Combination assays for viability in the presence of PIH and NAC were performed the same way. […] All tests were repeated at least on four different weeks of cultivation.
as §2

[2] = resazurin viability, endpoint 48 h, 10^5 J774 cells/mL, mean ± SD of 4–8 experiments
[3] = resazurin viability, endpoint 48 h, 2 × 10^6 LtP/mL, mean ± SD of 4–8 experiments

Row | SMILES | IC50 [1, 3] | Selectivity IC50,J774/IC50,LtP [1] | IC50,non-EP/IC50,EP [1] | IC50 (J774 macrophages; [2]) | Activity against LtP, in words ([1]; viability assay) | IC50 (J774 macrophages) | IC50 ([1]; 48 h)
1 | C[n+]1ccc(C23OOC(c4cc[n+](C)cc4)(c4ccccc42)c2ccccc23)cc1 [Compound 1062MeAcEP] | 62 ± 34.2 µM | >3.2 |  | > 200 µM |  |  | 
2 | c1ccc(C23OOC(c4ccccc4)(c4ccccc42)c2ccccc23)cc1 [DPAcEP] | 9.67 ± 2.15 µM | 20 | 20.3 | 197 ± 35 µM | rather active |  | 
3 | CC(C)(C)c1ccc2c(-c3cccnc3)c3ccccc3c(-c3cccnc3)c2c1 [mPyBuAc] |  | 139 |  |  |  | 74.2 ± 45.9 µM | 0.54 ± 0.09 µM
4 | COc1ccccc1C12OOC(c3ccccc3OC)(c3ccccc31)c1ccccc12 [oOMeAcEP] | 40.7 ± 12.3 µM | >4.9 | 1.79 | > 200 µM |  |  | 

Continued, in another order:

Row | IC50 [1, 3] | Selectivity IC50,J774/IC50,LtP [1] | IC50,non-EP/IC50,EP [1] | SMILES | IC50 (J774 macrophages; [2]) | Activity against LtP, in words ([1]; viability assay) | IC50 (J774 macrophages) | IC50 ([1]; 48 h)
5 | 0.7 ± 0.31 µM | 35 | 0.77 | CC(C)(C)c1ccc2c(c1)C1(c3cccnc3)OOC2(c2cccnc2)c2ccccc21 (centres unmarked) [mPyBuAcEP] | 24.6 ± 7.3 µM |  |  | 
6 | 1.84 ± 0.13 µM | 1.2 | 18.7 | c1ccc(C23OOC(c4ccccn4)(c4ccccc42)c2ccccc23)nc1 [oPyAcEP] | 2.24 ± 0.08 µM |  |  | 

Source: PMC9612231, “Antileishmanial Anthracene Endoperoxides: Efficacy In Vitro, Mechanisms and Structure-Activity Relationships” (Molecules, 2022)
